Results from patent US20220389058A1, “PEPTIDES AND COMPOSITIONS FOR USE IN COSMETICS AND MEDICINE” (LIPOTRUE, S.L., priority 2019, published 2022).

Assays:
Format in all cases: cell-based, Human
HUVECs = assay: Genes related with response to sleep deprivation, RT-qPCR in HUVEC (Example 16); conditions: 0.01 mg/ml, 24 hours
Protocol: A stock solution of the peptide was prepared in water at 1 mg/mL. Working solution was freshly prepared at the specified concentration from stock solution in the corresponding supplemented medium.
RNA (ribonucleic acid) extraction and RT-qPCR (reverse transcription quantitative polymerase chain reaction) were performed. […]
Cells were finally lysed, and replicates were pooled together for RNA extraction using Qiagen RNeasy Mini kit following manufacturer's instructions. […] (Annealing and extension) (Arya, M., Shergill, I. S., Williamson, M., Gommersall, L., Arya, N., Patel, H. R. (2005) Basic principles of real-time quantitative PCR. Expert Rev. Mol. Diagn.; 5(2):209-19; and Jozefczuk, J. and Adjaye, J. (2011) Quantitative real-time PCR-based analysis of gene expression. Methods Enzymol. 500; 99-109).
The obtained data was analysed using the ΔΔCt method, which provides the target gene expression values as fold changes in the treated sample compared with an untreated basal sample. […]

emilin-1 = assay: Emilin-1 protein expression, immunofluorescence in HDLMVEC (Example 18)
Protocol: HDLMVEC were cultured on coverslips in Microvascular Endothelial Cell Growth (MECG) Medium at a density of 16.000 cell/cm^2 and 37° C. in a humidified atmosphere with 5% CO2. When cell confluence was around 70-80%, cells were treated with 0.05 mg/mL Ac-SEQ ID NO:1-NH2 in MECG medium for 24 hours. Then, cells were washed twice with PBS, fixed with 4% formaldehyde and permeabilized with Triton 0.2%. Next, samples were blocked for 1 hour with PBS/BSA 5%, in order to avoid nonspecific antibody binding. Emilin-1 was stained with 1:50 Emilin-1 antibody in PBS/BSA 1%, during 1.5 hours at room temperature. After proper washing with PBS, actin was stained with 50 μg/mL Phalloidin during 1 hour at room temperature. Then, cells were washed with PBS and incubated with 5 μg/mL of the secondary antibody Goat anti-Rabbit IgG for 1 hour at room temperature. Finally, coverslips were mounted using Vectashield with DAPI, that stains nuclei, and samples were kept protected from light at 4° C. until microscopic images were acquired. […]
Images were analyzed using Image J software. Shortly, threshold was adjusted to select emilin-1 staining and mean fluorescent was measured. The number of cells was counted using the DAPI staining. […]
Statistical data analysis was performed using Student t-test by comparison of fluorescence from treated cells vs non-treated cells, *, p<0.05; **, p<0.01 and ***, p<0.001.

integrin α9β1 (Itg9) = assay: Integrin α9β1 protein expression, immunofluorescence in HDLMVEC (Example 19)
Protocol: HDLMVEC were cultured on coverslips in Microvascular Endothelial Cell Growth (MECG) Medium at a density of 16.000 cell/cm^2 and 37° C. in a humidified atmosphere with 5% CO2.
When cell confluence was around 70-80%, cells were treated with 0.05 mg/mL Ac-SEQ ID NO:1-NH2 in MECG medium for 24 hours. Then, cells were washed twice with PBS, fixed with 4% formaldehyde and permeabilized with Triton 0.2%. Next, samples were blocked for 1 hour with PBS/BSA 5%, in order to avoid nonspecific antibody binding.
Itg9 was stained with 1:50 anti-Itg9 antibody in PBS/BSA 1%, during 1.5 hours at room temperature. After proper washing with PBS, actin was stained with 50 μg/mL Phalloidin during 1 hour at room temperature. Then, cells were washed with PBS and incubated with 5 μg/mL of the secondary antibody Goat anti-Rabbit IgG for 1 hour at room temperature. Finally, coverslips were mounted using Vectashield with DAPI, that stains nuclei, and samples were kept protected from light at 4° C. until microscopic images were acquired.
Microscopic images were acquired using 10×objective. […]
Images were analyzed using Image J software. Shortly, threshold was adjusted to select Itg9 staining and mean fluorescent was measured. The number of cells was counted using the DAPI staining. […]

[1] = 0.05 mg/mL, 24 hours, basal = 100.00

Question: Which “NFKB1 Fold change between treated cells and basal control” value (HUVECs) does the source give for “Ac-Arg-Arg-Gln-Met-Arg-Glu-NH2 (Ac-RRQMRE-NH2) [Ac-SEQ ID NO: 1-NH2]” here?
Answer: The value was −1.24 Fold change.

Question: What about the “% Mean of emilin-1 compared to untreated cells” value (emilin-1; [1]) of the same substance?
Answer: The value was 170.88%.

Question: And the “increase of the expression of emilin-1 when compared with untreated cells” value (emilin-1; 24 h of treatment)?
Answer: Its value is “more than 70%”.

Question: And the “% Mean of integrin α9β1 (Itg9) compared to untreated cells” value (integrin α9β1 (Itg9); [1])?
Answer: Its value is 153.56%.

Question: And the “increase of the expression of Itg9 when compared with the untreated cells” value (integrin α9β1 (Itg9); 24 hours of treatment)?
Answer: Its value is over 50%.
